In EP0361954A2, “CRF Analogs” (THE SALK INSTITUTE FOR BIOLOGICAL STUDIES, priority 1988, dated 1990):
Non-standard residues stand in square brackets, D forms with d. Nle = CCCC[C@H](N)C(=O)O; Nva = CCC[C@H](N)C(=O)O

Tests used:
[1] = system: cultured rat pituitary cells; assay: Secretion of ACTH and β-endorphin by cultured rat pituitary cells (procedure of Endocrinology, 91, 562 (1972)); format: cell-based; conditions: testing by the general procedure of Example III
Procedure: (§1) The synthetic peptide [D-Glu²⁰]-oCRF is examined for its effects on the secretion of ACTH and β-endorphin in vitro and was also in vivo. The potency of synthetic [D-Glu²⁰]-oCRF to stimulate the secretion of ACTH and β-endorphin by cultured rat pituitary cells is measured using the procedure as generally set forth in Endocrinology, 91, 562 (1972) and compared against synthetic oCRF. […] In vivo testing is carried out using the general procedure set forth in C.

[2] = In vivo testing (general procedure of C. Rivier et al., Science, 218, 377 (1982)): duration of potency and blood pressure; conditions: general procedure of Example III
Procedure: as §1

Substance	stimulation of the secretion of ACTH and β-END-LI [1]	lowering of blood pressure [2]
H-SQEPPISLDLTFHLLRE[Nle]L[dE][Nle]AKAEQEAEQA[dH]LNRLLLEEA-NH2 [[Nle^18,21, D-Glu²⁰, D-His³²]-AHC]	stimulates the secretion of ACTH and β-END-LI	very significant lowering of blood pressure
H-SQEPPISLDLTFHLREVL[dE][Nle]TKADQLAQQAHSNRKLLDIA-NH2 [[D-Glu²⁰, Nle²¹]-oCRF]	stimulates the secretion of ACTH and β-END-LI	very significant lowering of blood pressure
H-SQEPPISLDLT[dF]ELLREMLEIAKAEQEAEQAALNRKYLEEV-NH2	stimulates the secretion of ACTH and β-END-LI	very significant lowering of blood pressure
H-SQEPPISLDLT[dF]HLLREML[dE]RAKAEQEAEQAALNRLLLEEA-NH2 [[D-Phe¹², D-Glu²⁰, Arg²¹]-AHC]	stimulates the secretion of ACTH and β-END-LI	very significant lowering of blood pressure
H-SQEPPISLDLT[dF]HLLRE[Nle]LE[Nle]AK[dA]EQEAEQAALNRLLLEEA-NH2 [[D-Phe¹², Nle^18,21, D-Ala²⁴]-AHC]	stimulates the secretion of ACTH and β-END-LI	very significant lowering of blood pressure
H-SQE[dP]PISLDLT[dF]HLLRE[Nle]LE[Nle]AKAEQEAEQAAINRNLLEEA-NH2	stimulates the secretion of ACTH and β-END-LI	very significant lowering of blood pressure
H-SQ[dY]PPISLDLTFHLLRE[Nle]L[dE][Nva]AK[dA]EQEAEQAALNRLLLEEA-NH2	stimulates the secretion of ACTH and β-END-LI	very significant lowering of blood pressure
H-Ser-Gln-GluU-Pro-Pro-Ile-Ser-Leu-Asp-Leu-Thr-D-Phe-His-Leu-Leu-Arg-Glu-Val-Leu-Glu-Nle-Thr-Lys-Ala-Asp-Gln-Leu-Ala-Gln-Gln-Ala-His-Ser-Asn-Arg-Lys-Leu-Leu-Asp-Ile-Ala-NH₂ [[D-phe¹², Nle²¹ -oCRF]	stimulates the secretion of ACTH and β-END-LI	very significant lowering of blood pressure
H-Ser-Glu-Glu-pro-pro-lle-Ser-Leu-Asp-Leu-Thr-D-Phe-Glu-Leu-Leu-Arg-Glu-Nle-Leu-Glu-Met-Glu-Orn-Ala-Glu-Lys-Glu-Ala-Glu-Gln-Ala-Ala-Leu-Asn-Arg-Leu-Leu-Leu-Glu-Glu-Ala-NH₂ [[Glu^2,13,22 D-Phe¹², Nle¹⁸, Orn²³]-AHC]	stimulates the secretion of ACTH and β-END-LI	very significant lowering of blood pressure
